Data from patent US20150299801A1, “Techniques for Treating Acute Lymphoblastic Leukemia (ALL)” (THE TRUSTEES OF COLUMBIA UNIVERSITY IN THE CITY OF NEW YORK, priority 2012, published 2015).

What was measured:
[1] = test system: CCRF-CEM T-ALL cells expressing relapse-associated mutant NT5C2 alleles; test: MTT cell viability and chemotherapy drug response, CCRF-CEM cells expressing mutant NT5C2; type: cell-based; conditions: for increase of IC50 for mutations versus control (RFP) or wild type (NT5C2 WT): CCRF-CEM cell line, NT5C2 R367Q, D407A; for IC50: Homo sapiens, CCRF-CEM cells expressing mutation (NT5C2 R367Q), read from graph, viability relative to vehicle treated cells, read-out: log concentration at which viability falls to 50% (converted); for resistance to therapy compared with empty vector and wild type NT5C2 controls: cells expressing NT5C2 K359Q, R367Q and D407A, increased drug concentrations
Description: (§1) To formally test the role of NT5C2 mutations in chemotherapy resistance, the effects of wild type and relapse-associated mutant NT5C2 expression were analyzed in the response of CCRF-CEM T-ALL cells to 6-mercaptopurine (6-MP) and 6-thyogunanine (6-TG). Expression of NT5C2 mutations in ALL cells induces resistance to chemotherapy with 6-MP and 6-TG. Viability assays were performed in CCRF-CEM and CUTLL1 T-ALL cells expressing wild type NT5C2, relapse-associated mutant NT5C2 alleles, or a red fluorescent protein (RFP) as control, treated with increased concentrations of the nucleoside analog chemotherapeutic drugs.
(§2) CCRF-CEM and CUTLL1 cells were cultured in RPMI-1640 media supplemented with 10% fetal bovine serum, 100U/ml penicillin G and 100 ug/ml streptomycin at 37 C in a humidified atmosphere under 5% CO2. HEK293T were maintained under similar conditions in DMEM media.
(§3) The lentiviral constructs pLOC-NT5C2, pLOC-NT5C2 359, pLOC-I 367, pLOC-I 407 and the pLOC-RFP control plasmid were transfected with gag-pol and V-SVG expressing vectors into HEK293T cells using JetPEI transfection reagent (Polyplus, of Illkirch, France). Viral supernatants were collected after 48 h and used for infection of CCRF-CEM and CUTLL1 cells by spinoculation. After infection, cells were selected for 5 days in blasticidin and ficolled the day before experiments.
(§4) Cell viability was determined by measurement of the metabolic reduction of the tetrazolium salt MTT using the Cell Proliferation Kit I (Roche, of Indianapolis, Ind.) following the manufacturer instructions. Experiments were done in triplicates. Viability was analyzed after 48 or 72 hours of initiation of treatment with 6-mercaptopurine, 6-thioguanine, nelarabine and Ara-G.

[2] = test system: CCRF-CEM T-ALL cells expressing RFP control or wild type NT5C2; test: MTT cell viability and chemotherapy drug response, CCRF-CEM control cells; type: cell-based; conditions: Homo sapiens; CCRF-CEM cells expressing RFP control or NT5C2 WT; read from graph; read-out: log concentration at which viability falls to 50% (converted)
Description: as §1, §2, §3, §4

[3] = test system: CUTLL1 T-ALL cells expressing relapse-associated mutant NT5C2 alleles; test: MTT cell viability and chemotherapy drug response, CUTLL1 cells expressing mutant NT5C2; type: cell-based; conditions: for increase of IC50 for mutations versus control (RFP) or wild type (NT5C2 WT): CUTLL1 cell line, NT5C2 R367Q, D407A
Description: as §1, §2, §3, §4

[4] = test system: CUTLL1 T-ALL cells expressing RFP control or wild type NT5C2; test: MTT cell viability and chemotherapy drug response, CUTLL1 control cells; type: cell-based; conditions: CUTLL1 cells expressing RFP control or NT5C2 WT; read from graph; read-out: log concentration at which viability falls to 50% (converted)
Description: as §1
CCRF-CEM and CUTLL1 cells were cultured in RPMI-1640 media supplemented with 10% fetal bovine serum, 100U/ml penicillin G and 100 ug/ml streptomycin at 37 C in a humidified atmosphere under 5% CO2. HEK293T were maintained under similar conditions in DMEM media. […]
as §4, with “Experiments were done in triplicates.” left out

[5] = biological target: T1, NT5C2 WT (Homo sapiens, UniProt P49902); test: 5'-nucleotidase activity as a function of ATP concentration, wild type; type: biochemical
T1 construct: Full length cDNA constructs encoding wild type NT5C2, NT5C2 K359Q, NT5C2 R367Q and NT5C2 D407A were cloned; His6 (N); made in house; host or cells: Rosetta 2(DE3) E. coli
Description: (§5) Biochemical nucleotidase assays measuring release of phosphate upon incubation of NT5C2 with phosphonucleodides were used, including a commercial kit that measures enzymatic activity. (See file DZ123A.php in subfolder reagents of folder products in the World Wide Web at domain diazyme in category corn.)
(§6) Full length cDNA constructs encoding wild type NT5C2, NT5C2 K359Q, NT5C2 R367Q and NT5C2 D407A were cloned with an N-terminal His6 tag in the pET28a-LIC expression vector using the In-Fusion HD PCR cloning system (Clontech, of Mountain View, Calif.), as per manufacturer's instructions. Recombinant proteins were expressed from Rosetta 2(DE3) E. coli cells by induction with 0.5 mM isopropyl-β-D-thiogalactopyranoside for 3 hours at 37° C. […] Protein expression and purity was assessed y SDS-PAGE and Coomassie staining.
(§7) 5′-Nucleotidase activity of purified recombinant wild type and mutant NT5C2 proteins was assessed using the 5′-nucleotidase (5′-NT) Enzymatic Test Kit (Diazyme, of Poway, Calif.), according to the manufacturer's instructions. […] H2O2 is quantified using a Trinder reaction. 5′-Nucleotidase activity levels are calculated using a calibrator of known 5′-NT activity as standard. Assays were performed in triplicate in an Infinite M200 Tecan (of Mannedorf, Switzerland) plate reader.

[6] = biological target: T2, NT5C2 R291W (Homo sapiens, UniProt P49902, R291W); test: 5'-nucleotidase activity as a function of ATP concentration, R291W; type: biochemical
T2 construct: His6 (N); made in house; host or cells: Rosetta 2(DE3) E. coli (described for WT, K359Q, R367Q, D407A)
T2 sequence (P49902 whole entry R291W): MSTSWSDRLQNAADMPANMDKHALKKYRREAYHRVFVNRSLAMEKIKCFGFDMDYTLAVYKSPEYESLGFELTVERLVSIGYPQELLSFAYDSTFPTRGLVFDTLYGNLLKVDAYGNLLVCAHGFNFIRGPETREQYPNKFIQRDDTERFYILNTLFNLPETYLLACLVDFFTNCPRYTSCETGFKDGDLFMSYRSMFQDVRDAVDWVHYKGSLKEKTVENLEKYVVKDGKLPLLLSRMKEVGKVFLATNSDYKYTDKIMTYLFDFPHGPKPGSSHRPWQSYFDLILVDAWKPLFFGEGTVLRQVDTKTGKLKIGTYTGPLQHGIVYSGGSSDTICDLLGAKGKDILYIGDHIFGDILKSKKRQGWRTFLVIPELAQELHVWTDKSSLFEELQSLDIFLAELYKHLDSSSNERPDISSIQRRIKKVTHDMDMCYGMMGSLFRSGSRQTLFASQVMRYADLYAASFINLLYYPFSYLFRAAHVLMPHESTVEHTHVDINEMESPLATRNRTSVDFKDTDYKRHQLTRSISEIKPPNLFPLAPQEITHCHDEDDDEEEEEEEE

[7] = biological target: T3, NT5C2 Q523X (Homo sapiens, UniProt P49902); test: 5'-nucleotidase activity as a function of ATP concentration, Q523X; type: biochemical
T3 construct: His6 (N); made in house; host or cells: Rosetta 2(DE3) E. coli (described for WT, K359Q, R367Q, D407A)
T3 sequence (P49902 1-522 limits assumed): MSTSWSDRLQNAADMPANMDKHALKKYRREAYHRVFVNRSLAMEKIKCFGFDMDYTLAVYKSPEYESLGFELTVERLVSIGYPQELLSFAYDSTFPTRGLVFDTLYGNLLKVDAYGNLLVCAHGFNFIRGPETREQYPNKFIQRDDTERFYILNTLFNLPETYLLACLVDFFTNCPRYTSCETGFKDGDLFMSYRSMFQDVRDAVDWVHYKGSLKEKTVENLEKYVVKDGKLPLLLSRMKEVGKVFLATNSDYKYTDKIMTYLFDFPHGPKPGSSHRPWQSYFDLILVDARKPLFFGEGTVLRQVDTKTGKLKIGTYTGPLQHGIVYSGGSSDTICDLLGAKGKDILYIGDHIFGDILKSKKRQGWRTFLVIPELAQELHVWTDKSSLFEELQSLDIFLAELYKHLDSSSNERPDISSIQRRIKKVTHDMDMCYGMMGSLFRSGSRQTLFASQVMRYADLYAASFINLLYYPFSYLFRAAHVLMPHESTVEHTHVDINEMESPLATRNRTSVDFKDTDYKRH

[8] = test system: NT5C2 K359Q, R367Q, D407A, L375F, R238W; test: 5'-nucleotidase activity as a function of ATP concentration, remaining mutations; type: biochemical, human
Description: as §5, §6, §7

[9] = read-out: A0.5, ATP concentration to achieve an activity equal to half Vmax

| increase of IC50 for mutations versus control (RFP) or wild type (NT5C2 WT) [1] | IC50 [1] | IC50 [2] | SMILES | resistance to therapy compared with empty vector and wild type NT5C2 controls [1] | increase of IC50 for mutations versus control (RFP) or wild type (NT5C2 WT) [3] | IC50 [4] | activity in cells expressing relapse-associated NT5C2 mutations compared to controls [1] | other results |
| --- | --- | --- | --- | --- | --- | --- | --- | --- |
| about double | ~10 µM | ~6.31 µM | Sc1ncnc2nc[nH]c12 [6-MP, 6-mercaptopurine] | increased resistance | greater than ten times as much | ~6.31 µM |  |  |
| greater than ten times as much |  | ~1 µM | Nc1nc2nc[nH]c2c(=S)[nH]1 [6-TG, 6-thioguanine] | increased resistance | about double | ~1 µM |  | IC50 ([3]; CUTLL1 cells expressing mutation NT5C2 R367Q, read from graph, read-out: log concentration at which viability falls to 50% (converted)): ~3.16 µM |
|  |  |  | Nc1ncnc2c1ncn2[C@@H]1O[C@H](COP(=O)(O)OP(=O)(O)OP(=O)(O)O)[C@@H](O)[C@H]1O [ATP] |  |  |  |  | 5'-NT activity relative to 0 mM ATP (factor of increase) ([5]; ATP concentrations over 20 mM): over 60; EC50 [5, 9]: 19500 µM; 5'-NT activity relative to 0 mM ATP (factor of increase) [6]: over 20; EC50 [6, 9]: ~4000 µM; 5'-NT activity relative to 0 mM ATP (factor of increase) [7]: over 20; EC50 [7, 9]: ~3000 µM; 5'-NT activity relative to 0 mM ATP ([8]; K359Q, R367Q, D407A, L375F, R238W): little change between reference activity and maximum activity; EC50 ([8]; remaining mutations, read-out: A0.5, ATP concentration to achieve an activity equal to half Vmax): < 1000 µM |
|  |  |  | Nc1nc2c(ncn2[C@@H]2O[C@H](CO)[C@@H](O)[C@@H]2O)c(=O)[nH]1 [AraG] |  |  |  | equally active |  |
|  | ~100 µM | ~100 µM | COc1nc(N)nc2c1ncn2[C@@H]1O[C@H](CO)[C@@H](O)[C@@H]1O [nelarabine] |  |  |  | equally active |  |
